# Earlier results in patent US20030096334A1, “Use of injectable dyes for staining an anterior lens capsule and vitreo-retinal interface” (priority 2001, published 2003).
# Conditions: descriptive term only
smiles,measurement,value
"Cc1cc(-c2ccc(/N=N/c3ccc4c(S(=O)(=O)O)cc(S(=O)(=O)O)c(N)c4c3O)c(C)c2)ccc1/N=N/c1ccc2c(S(=O)(=O)O)cc(S(=O)(=O)O)c(N)c2c1O [Evans Blue, Tetrasodium 6.6′-[3,3′-dimethylbiphenyl-4,4′-diylbis(azo)]bis[4-amino-t-hydroxynaphthalene-1,3-disulphonate]]",solubility in water,very soluble
